In patent US9221810B2, “Substituted bicyclic aromatic compounds as S-nitrosoglutathione reductase inhibitors” (Nivalis Therapeutics, Inc., priority 2010, dated 2015):

Biological target: T1, GSNOR (Homo sapiens, UniProt P11766)
T1 construct: made in house; host or cells: E. coli (arabinose-induced)
Test: GSNOR assay (inhibition of GSNOR activity, NADH absorbance at 340 nm)
Format: biochemical
Conditions: printed as 'about <'; 0.240 mM GSNO, 0.300 mM NADH, pH 7.4, 25° C.
Description: GSNOR expression and purification is described in Biochemistry 2000, 39, 10720-10729.
GSNOR Fermentation: Pre-cultures were grown from stabs of a GSNOR glycerol stock in 2XYT media containing 100 ug/ml ampicillin after an overnight incubation at 37° C. Cells were then added to fresh 2XYT (4 L) containing ampicillin and grown to an OD (A600) of 0.6-0.9 at 37° C. before induction. GSNOR expression was induced with 0.1% arabinose in an overnight incubation at 20° C.
GSNOR Purification: E. coli cell paste was lysed by nitrogen cavitation and the clarified lysate purified by Ni affinity chromatography on an AKTA FPLC (Amersham Pharmacia). The column was eluted in 20 mM Tris pH 8.0/250 mM NaCl with a 0-500 mM imidazole gradient. Eluted GSNOR fractions containing the Smt-GSNOR fusion were digested overnight with Ulp-1 at 4° C. to remove the affinity tag then re-run on the Ni column under the same conditions. GSNOR was recovered in the flowthrough fraction and for crystallography is further purified by Q-Sepharose and Heparin flowthrough chromatography in 20 mM Tris pH 8.0, 1 mM DTT, 10 uM ZnSO4.
GSNOR Assay: GSNO and enzyme/NADH Solutions are made up fresh each day. The solutions are filtered and allowed to warm to room temperature. GSNO solution: 100 mM NaPO4 (pH 7.4), 0.480 mM GSNO. 396 μL of GSNO Solution is added to a cuvette followed by 8 μL of test compound in DMSO (or DMSO only for full reaction control) and mixed with the pipette tip. Compounds to be tested are made up at a stock concentration of 10 mM in 100% DMSO. 2 fold serial dilutions are done in 100% DMSO. 8 μL of each dilution are added to an assay so that the final concentration of DMSO in the assay is 1%. The concentrations of compounds tested range from 100 to 0.003 μM. Enzyme/NADH solution: 100 mM NaPO4 (pH 7.4), 0.600 mM NADH, 1.0 μg/mL GSNO Reductase. 396 μL of the Enzyme/NADH solution is added to the cuvette to start the reaction. The cuvette is placed in the Cary 3E UV/Visible Spectrophotometer and the change in 340 nm absorbance/min at 25° C. is recorded for 3 minutes. The assays are done in triplicate for each compound concentration. IC50's for each compound are calculated using the standard curve analysis in the Enzyme Kinetics Module of SigmaPlot.
Final assay conditions: 100 mM NaPO4, pH 7.4, 0.240 mM GSNO, 0.300 mM NADH, 0.5 μg/mL GSNO Reductase, and 1% DMSO. Final volume: 800 μL/cuvette.

T1 sequence (P11766 whole entry): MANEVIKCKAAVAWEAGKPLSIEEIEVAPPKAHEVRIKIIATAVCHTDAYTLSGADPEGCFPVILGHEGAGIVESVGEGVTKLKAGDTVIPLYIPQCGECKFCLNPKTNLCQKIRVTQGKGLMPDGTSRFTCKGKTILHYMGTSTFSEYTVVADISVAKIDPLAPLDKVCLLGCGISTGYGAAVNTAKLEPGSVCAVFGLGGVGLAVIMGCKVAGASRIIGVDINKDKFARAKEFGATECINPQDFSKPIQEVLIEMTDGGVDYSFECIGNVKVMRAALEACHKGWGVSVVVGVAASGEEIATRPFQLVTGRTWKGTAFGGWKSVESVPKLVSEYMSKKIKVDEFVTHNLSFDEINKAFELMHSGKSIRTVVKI

For O=C(O)c1ccc(-c2ccc3cc(O)ccc3n2)c(Cl)c1 [Example 8, 3-chloro-4-(6-hydroxyquinolin-2-yl)benzoic acid], which IC50 is on record?
Its IC50 is under 100 nM.
